Measured values as given in PubChem BioAssay (NCI).
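Each compound was tested at five concentrations against cells in 96-well plates for 48 hours. GI50 is the concentration that inhibits growth by half. TGI denotes the concentration required for complete inhibition of growth.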

Assays:
Experiment in all cases: NCI-60 cell line screen, 48 h
[1] = test system: ACHN renal
[2] = test system: CCRF-CEM leukemia
[3] = test system: NCI-H226 lung
[4] = test system: NCI-H23 lung
[5] = test system: RPMI-8226 leukemia
[6] = test system: SNB-75 CNS
[7] = test system: TK-10 renal
[8] = test system: UACC-62 melanoma
[9] = test system: UO-31 renal
[10] = test system: SR leukemia

SMILES | TGI [1] | TGI [2] | TGI [3] | TGI [4] | TGI [5] | TGI [6] | TGI [7] | TGI [8] | TGI [9] | TGI [10] | GI50 [1] | GI50 [2] | GI50 [3] | GI50 [4] | GI50 [5] | GI50 [6] | GI50 [7] | GI50 [8] | GI50 [9] | GI50 [10]
CC(C)C(=O)Oc1cc2c(=O)oc3c(OC(=O)C(C)C)c(OC(=O)C(C)C)cc4c(=O)oc(c1OC(=O)C(C)C)c2c34 | > 100 µM | > 100 µM | > 100 µM | > 100 µM | > 100 µM | > 100 µM | > 100 µM | > 100 µM | > 100 µM |  |  |  |  |  |  |  |  |  |  | 
O=C(Cc1ccccc1)NN1C(=O)/C(=C\c2ccc(O)cc2)SC1=Nc1ccccc1 | > 100 µM | > 100 µM | > 100 µM | > 100 µM | > 100 µM | > 100 µM | > 100 µM | > 100 µM | > 100 µM |  |  |  |  |  |  |  |  |  |  | 
CCOC(=O)[C@H]1Nc2ccccc2C2c3ccccc3CC21 (some centres undefined) | > 100 µM |  | > 100 µM | > 100 µM | > 100 µM | > 100 µM | > 100 µM | > 100 µM | > 100 µM | > 100 µM |  |  |  |  |  |  |  |  |  | 
Cc1nc(-n2nc(-c3ccccc3)cc2-c2ccccc2)sc1C(/C=C/c1ccc([N+](=O)[O-])cc1)=N/NC(=O)c1ccncc1 | > 100 µM | > 100 µM | 56.9 µM | 40.6 µM | > 100 µM | > 100 µM | 82.9 µM | 81.1 µM | 90.4 µM |  |  |  |  |  |  |  |  |  |  | 
COc1ccc(CCN2CCc3c(C)c(C#N)c4nc5ccccc5n4c32)cc1OC | > 100 µM | > 100 µM | 93.7 µM | > 100 µM |  | 88.7 µM | > 100 µM | 95.3 µM | > 100 µM |  |  |  |  |  |  |  |  |  |  | 
Cc1ccc(C(C)C)cc1NC(=O)Nc1ccc([N+](=O)[O-])cc1 | 7.82 µM | 5.53 µM | 6.14 µM | 7.97 µM | 4.73 µM | 10.5 µM | 9.44 µM | 10.2 µM | 5.79 µM |  | 2.56 µM | 1.97 µM | 1.77 µM | 2.49 µM | 1.57 µM | 2.52 µM | 2.36 µM | 1.81 µM | 1.54 µM | 
O=C(Nc1cccc(NC(=O)c2cc(=O)c3ccccc3o2)n1)c1cc(=O)c2ccccc2o1 | > 100 µM | > 100 µM |  | > 100 µM | 81.3 µM | > 100 µM | > 100 µM | > 100 µM | 85.6 µM |  |  |  |  |  |  |  |  |  |  | 
CN1CCc2c1nc(-c1ccc([N+](=O)[O-])cc1)c1c2N(C)CC1 | > 100 µM | > 100 µM |  | > 100 µM | > 100 µM | > 100 µM | > 100 µM | > 100 µM | > 100 µM |  |  |  |  |  |  |  |  |  |  | 
CC1COCC(C)N1C1=C(Cl)C(=O)c2ccccc2C1=O (centres undefined) | 3.06 µM |  | 31.2 µM | 24.7 µM | 5.68 µM | 23.2 µM | 26.2 µM | 18.8 µM | 2.73 µM | 5.97 µM | 1.66 µM |  | 15.1 µM | 11.2 µM | 2.04 µM | 10.7 µM | 13 µM | 5.85 µM | 1.39 µM | 2.28 µM
C=[CH][Sn]([CH]=C)([O]c1cccc2cccnc12)[O]c1cccc2cccnc12 | 14.1 µM |  | 9.47 µM | 6.87 µM | 4.71 µM | 14 µM | 29.4 µM | 2.5 µM | 9.31 µM |  | 3.26 µM |  | 2.95 µM | 2.32 µM | 0.877 µM | 3.95 µM | 9.46 µM | 0.964 µM | 3.25 µM | 
CC(=O)C1C(=O)N(C(C)C)C[C@@H]2CCC(=O)C[C@H]12 (some centres undefined) |  | > 100 µM |  | > 100 µM | > 100 µM | > 100 µM | > 100 µM | > 100 µM | > 100 µM |  |  |  |  |  |  |  |  |  |  | 
S=c1nc(-c2ccnc(-c3nc(=S)[nH][nH]3)c2)[nH][nH]1 | > 100 µM | > 100 µM | > 100 µM | > 100 µM | > 100 µM |  | > 100 µM | > 100 µM | > 100 µM |  |  |  |  |  |  |  |  |  |  | 
Cc1cc([N+](=O)[O-])c(C)c(Br)c1C | > 100 µM |  | > 100 µM | > 100 µM | > 100 µM | > 100 µM | > 100 µM | > 100 µM | > 100 µM |  |  |  |  |  |  |  |  |  |  | 
N[C@@H]1CCCC[C@@H]1N.O=P([O-])([O-])CN(CP(=O)([O-])[O-])CP(=O)([O-])[O-].[Pt+2] | > 100 µM | > 100 µM | > 100 µM |  | > 100 µM | > 100 µM | > 100 µM | > 100 µM | > 100 µM |  | > 100 µM | > 100 µM | > 100 µM |  | > 100 µM | > 100 µM | > 100 µM | > 100 µM | > 100 µM | 
Nc1ccc2c(c1)c(N)nn2C(=O)Nc1ccc(Cc2ccccc2)cc1 | 13.7 µM | 18.8 µM | 38.3 µM | 39.5 µM | 35 µM | 31.5 µM | 46 µM | 12.6 µM | 32.6 µM |  | 3.37 µM | 2.07 µM | 16.1 µM | 16.9 µM | 5.14 µM | 17.4 µM | 19.4 µM | 2.9 µM | 4.72 µM | 
CCOc1cc(-c2ccc[nH]2)[nH]c1/C=C1\N=C(C)C(C(=O)OC)=C1C | 1.16 µM | 1.99 µM | 0.044 µM | 1.92 µM | 0.0898 µM | 0.3 µM | 1.5 µM | 0.0581 µM | 0.143 µM |  | 0.0344 µM |  | 0.0185 µM | 0.0876 µM | 0.0216 µM | 0.0364 µM | 0.0579 µM | 0.024 µM | 0.0252 µM | 
CCCCCCCCCCCCCc1nn[nH]n1 | 42.2 µM | 41.7 µM | 45.5 µM | 44.6 µM | 64.2 µM | 36 µM | 43.7 µM | 34.6 µM | 29.5 µM |  |  |  |  |  |  |  |  |  |  | 
O=C(Cc1csc2nc(-c3ccc(Br)cc3)cn12)N/N=C/c1ccc(O)cc1 | 51 µM | 79.9 µM |  | 32.2 µM | 40.2 µM | > 100 µM | 33.4 µM | 23.5 µM | > 100 µM |  | 14.7 µM | 12.2 µM |  | 7.5 µM | 4.29 µM | > 100 µM | 9.79 µM | 9.11 µM | 26.3 µM | 
COc1ccccc1NC(=O)C(CC(C(=O)Nc1ccccc1OC)/C(C)=N/Nc1ccc([N+](=O)[O-])cc1[N+](=O)[O-])/C(C)=N/Nc1ccc([N+](=O)[O-])cc1[N+](=O)[O-] (centres undefined) | > 100 µM | > 100 µM | > 100 µM | > 100 µM | > 100 µM | > 100 µM | 60 µM | > 100 µM | > 100 µM |  |  |  |  |  |  |  |  |  |  | 
CSC1=NCC2(S1)c1ccccc1N(C(=O)OC(C)(C)C)C2N1CCCCC1 (centres undefined) |  | > 100 µM | > 100 µM |  | > 100 µM | 88.4 µM | > 100 µM | > 100 µM | > 100 µM |  |  | > 100 µM | > 100 µM |  | > 100 µM | 31.7 µM | > 100 µM | 76.6 µM | 78.7 µM | 
CCOc1ccc(C(CN2CCOCC2)C(C)=O)cc1OC (centres undefined) | 27.3 µM | 26.1 µM | 32.4 µM | 32.9 µM | 83.5 µM | 32.6 µM | 31 µM | 32.8 µM | 27.8 µM |  |  |  |  |  |  |  |  |  |  | 
COc1cccc(C2NC(=S)NC(C)=C2C(=O)Nc2ccc(Cl)c(Cl)c2)c1 (centres undefined) | 23.2 µM |  | 30.7 µM |  | > 50 µM | > 50 µM | 28.6 µM | 15.9 µM | 17.9 µM | > 50 µM | 10.1 µM |  | 12.1 µM |  | 21 µM | 34.8 µM | 12.8 µM | 8.2 µM | 9.1 µM | 42.6 µM
COc1ccc(S(=O)(=O)N(C)CC(=O)O)cc1 | > 100 µM | > 100 µM | > 100 µM | > 100 µM | > 100 µM | > 100 µM | > 100 µM | > 100 µM | > 100 µM |  |  |  |  |  |  |  |  |  |  | 
CCCCCCCCCCCCCCCCOC(=O)c1cc(O)cc(C(=O)OCCCCCCCCCCCCCCCC)c1 | > 100 µM | > 100 µM | > 100 µM | > 100 µM | > 100 µM | > 100 µM | > 100 µM | > 100 µM | > 100 µM |  |  |  |  |  |  |  |  |  |  | 
FC1OC2OC1C(OCc1ccccc1)C(OCc1ccccc1)C2OCc1ccccc1 (centres undefined) |  | 75.8 µM | > 100 µM | > 100 µM | 61.2 µM | > 100 µM | > 100 µM | > 100 µM | > 100 µM |  |  |  |  |  |  |  |  |  |  | 
N=C1C=C(N)C(=O)c2[nH]c(=O)ccc21 | 3.1 µM | 5.81 µM | 6.04 µM | 4.09 µM |  |  | 24.9 µM | 4.61 µM |  |  |  |  |  |  |  |  |  |  |  | 
COc1ccc(CCN=C2CCC(C(=O)NCCc3ccc(OC)c(OC)c3)N2)cc1OC (centres undefined) | > 100 µM | > 100 µM | > 100 µM | > 100 µM | > 100 µM | > 100 µM | > 100 µM | > 100 µM | > 100 µM |  |  |  |  |  |  |  |  |  |  | 
C[C@]12CC[C@H](OC3CCCCO3)CC1=CC[C@@H]1C2CC[C@]2(C)/C(=N/O)CCC12 (some centres undefined) | 54.3 µM |  |  | 39.1 µM | 40 µM | 41.9 µM | 70.1 µM | > 100 µM | > 100 µM |  |  |  |  |  |  |  |  |  |  | 
CC1OC(OC2CCC3(C=O)C4CCC5(C)C(C6=CC(=O)OC6)CCC5(O)C4CCC3(O)C2)C(O)C(O)C1O (centres undefined) | 6.36e-05 µM |  | 0.000111 µM | 4.11e-05 µM | 0.000124 µM | 0.36 µM | 0.000193 µM | 0.000127 µM |  |  |  |  |  |  |  |  |  |  |  | 
